From US11008572B2, “Methods and compositions for modulating splicing” (SKYHAWK THERAPEUTICS, INC., priority 2017, dated 2021)
pIC50: −log10 of the molar value. Where two headings read alike, the source gives them in different places.

What was measured:
[1] = test system: FOXM1^A2 mRNA and FOXM1^BC mRNA; test: Splicing assay (FOXM1), qPCR of isoform mRNAs; type: cell-based; settings: for pIC50: 24 hours, table does not say EC50 or IC50, read-out: FOXM1; for IC50: FoxM1 BC mRNA decrease (exon included), read-out: Splice IC50 (nM) FoxM1 BC mRNA decrease (exon included); for EC50: read-out: Splice EC50 (nM) FoxM1 A mRNA increase (exon excluded)
Procedure, shortened: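 Cells (20,000/well) treated at plating with compound, 8-point 4-fold series from 10 μM, 0.2% DMSO, 24 h at 37° C. Isoform mRNAs quantified by RT-qPCR against plasmid standards, normalized to PPIA and DMSO control; isoform ratio computed per concentration.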

A-673 cells = test: Cell viability, crystal violet staining; type: cell-based; settings: Homo sapiens; for IC50: A673, cell viability, read-out: A-673 IC50 (nM) Cell viability; for pIC50: A673, read-out: A-673 cell viability (IC50)
Procedure, shortened: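 Readout is absorbance at 570 nm of crystal violet, taken up in 0.1 M sodium citrate in 50% ethanol after staining with 0.5% dye in 25% methanol. Plates held 5×10^3 cells per well, and compounds were added one day after seeding for 72 hours. Data are relative to vehicle, mean±SE.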

[2] = Homo sapiens, A673, 24 h, A-673 cells
[3] = Homo sapiens, A-375, 24 h, A-375 cells
[4] = Homo sapiens, BXPC-3, 24 h, BxPC-3 cells
[5] = Homo sapiens, Z-138, 24 h, Z-138 cells

CN(c1ccc(-c2ccc(-c3cn[nH]c3)cc2O)nn1)[C@@H]1C[C@H]2CC[C@@H](C1)N2 [compound 138, 2-(6-(((1R,3s,5S)-8-azabicyclo[3.2.1]octan-3-yl)(methyl)amino)pyridazin-3-yl)-5-(1H-pyrazol-4-yl)phenol]
pIC50 ([1]; 24 h, MDA-MB-231-luc cells): 7.00 to 7.96 | pIC50 ([1]; 24 h, U-118 cells): 7.00 to 7.96 | IC50 [1]: 10 to 100 nM | pIC50 [1, 2]: 7.00 to 7.96 | pIC50 [1, 3]: 8.00 to 9.00 | pIC50 [1, 4]: 6.70 to 7.00 | pIC50 ([1]; Homo sapiens, DU-145, 24 h, DU-145 cells): 7.00 to 7.96 | pIC50 ([1]; Homo sapiens, Daoy, 24 h, Daoy cells): 7.00 to 7.96 | pIC50 ([1]; Homo sapiens, G-401, 24 h, G-401 cells): 6.70 to 7.00 | pIC50 ([1]; Homo sapiens, SH-SY5Y, 24 h, SH-SY5Y cells): 7.00 to 7.96 | pIC50 ([1]; Homo sapiens, TT, 24 h, T.T cells): 7.00 to 7.96 | pIC50 [1, 5]: 7.00 to 7.96 | EC50 [1]: 10 to 100 nM | IC50 (A-673 cells): 10 to 100 nM

CN(c1ccc(-c2ccc(-c3cn[nH]c3)cc2O)nn1)[C@H]1C[C@]2(C)CC[C@](C)(C1)N2 [compound 151, 2-(6-(((1R,3s,5S)-1,5-dimethyl-8-azabicyclo[3.2.1]octan-3-yl)(methyl)amino)pyridazin-3-yl)-5-(1H-pyrazol-4-yl)phenol]
IC50 [1]: < 10 nM | pIC50 [1, 2]: 8.00 to 9.00 | pIC50 [1, 3]: 8.00 to 9.00 | pIC50 ([1]; Homo sapiens, Hep3B, 24 h, Hep-3B cells): 6.70 to 7.00 | pIC50 ([1]; Homo sapiens, K562, 24 h, K-562 cells): 7.00 to 7.96 | pIC50 ([1]; Homo sapiens, MDA-MB-468, 24 h, MDA-MB-468 cells): 7.00 to 7.96 | pIC50 ([1]; Homo sapiens, NCI-H358, 24 h, NCI-H358 cells): 8.00 to 9.00 | pIC50 ([1]; Homo sapiens, PANC-1, 24 h, PANC-1 cells): 6.70 to 7.00 | pIC50 ([1]; Homo sapiens, PC-3, 24 h, PC-3 cells): 7.00 to 7.96 | pIC50 ([1]; Homo sapiens, U-87 MG, 24 h, U-87MG cells): 7.00 to 7.96 | EC50 [1]: < 10 nM | IC50 (A-673 cells): < 10 nM | pIC50 (A-673 cells): ≥ 8.30

CN(c1ccc(-c2ccc(-c3cn[nH]c3)cc2O)nn1)[C@@H]1C[C@H]2CCC[C@@H](C1)N2 [compound 160, 2-(6-(((1R,3s,5S)-9-azabicyclo[3.3.1]nonan-3-yl)(methyl)amino)pyridazin-3-yl)-5-(1H-pyrazol-4-yl)phenol]
pIC50 ([1]; 24 h, MDA-MB-231-luc cells): 7.00 to 7.96 | pIC50 ([1]; 24 h, U-118 cells): 8.00 to 9.00 | IC50 [1]: < 10 nM | pIC50 [1, 2]: 8.00 to 9.00 | pIC50 [1, 3]: > 9.00 | pIC50 [1, 4]: 7.00 to 7.96 | pIC50 [1, 5]: 8.00 to 9.00 | EC50 [1]: < 10 nM | IC50 (A-673 cells): < 10 nM | pIC50 (A-673 cells): ≥ 8.30
